Test results reported in a melting point compilation (Tetko et al.; mined from patent text by program, amines drawn as free bases though some values may be those of a salt).

SMILES | melting point [°C]
C=CCN1CCC23CC(=O)CCC2(O)C1Cc1cccc(OC)c13 (centres undefined) | 166 to 167
CNC1=NN(C(=O)C(C)(C)C)C(C)(C)S1 | 162 to 164
Cc1cc(Cl)c2c(C#N)cn(-c3ccc(C(C)C)cc3Br)c2n1 | 123
CSc1ccc(N)c(C#N)c1 | 50 to 54
COc1ccc(CC(=O)N2CCN(C(=S)SC)CC2)c(OC)c1OC | 119 to 120
Cn1nc(-c2c(F)cccc2Cl)nc1-c1ccc(COc2ccc(C(F)(F)F)cc2Cl)c(Cl)c1 | 113 to 114
CC(C)[C@H](NC(=O)CC[C@H](C)CNC(=O)COc1ccccc1)[C@@H](O)c1c(-c2ccccc2)c1=O | 74 to 84
CCCC(=O)c1cnc2c(OCCOCCO)cccc2c1Nc1ccc(F)cc1C | 144 to 145
NS(=O)(=O)c1ccc(-n2nc(C(F)(F)F)cc2-c2ccc(-c3ccco3)cc2)c(F)c1 | 174
Cc1ccc(O)c2c1N(Cc1ccccc1)C(=O)C2(C)C | 128 to 129
CCOC(=O)c1ccc(OCc2ccc3c(c2)C(C)(C)CCC3(C)C)cc1 | 109 to 111
CCCc1nc(C(N)=O)c2n1-c1ccc(Cl)cc1C(c1ccccc1Cl)=NC2 | 298 to 300
COc1cc2c(OC)cccc2cc1-c1nc2cnccc2[nH]1 | 178 to 180
Fc1c(Cl)cccc1Br | 43
CCOC(=O)C1=C(C)NC(C)=C(C(=O)OC)C1c1ccc([N+](=O)[O-])cc1 (centres undefined) | 150
CN(C(=O)c1ccc2nonc2c1)C1CCC(F)(F)CC1 | 137 to 138
O=C(CBr)Nc1cccc(F)c1C(=O)O | 169 to 170
O=C(O)c1cc2cnc3ccccc3n2c1 | 242 to 247
CCN(C(C)=O)c1cccc(-c2ccnc3c(Cl)cnn23)c1 | 157 to 159
CCN1C(=O)C(C(=O)Nc2ccc(F)cc2)c2cc3c(cc21)CC(C)O3 (centres undefined) | 196 to 197
CC(C(=O)O)c1cccc(C(=O)c2cc3cc(C(=O)O)sc3s2)c1 (centres undefined) | 244

Next, values leading:

melting point [°C] | SMILES
173 to 175 | CCOCc1nc(N)c(N)c(=O)[nH]1
340 | CCn1c(CNc2ccncc2)nc2c(C#N)nc(-c3cccc(C(F)(F)F)c3)cc21
133 to 135 | O=C(Nc1ccc(Br)cc1CBr)C(F)(F)F
96 to 101 | COc1cc(/C=C/c2cc(/C=C/c3ccc4[nH]ccc4c3)n[nH]2)ccc1OCc1ccccn1
108 | COc1cc(-c2nc3ccc(OCCN(C)C)cc3n2Cc2ccccc2)cc(OC)c1OC
72 to 73 | CCC(=O)Oc1cc([N+](=O)[O-])cc([N+](=O)[O-])c1OC(=O)CC
189 to 190 | Cc1cc(C[C@@H](NC(=O)c2ccc(F)c3ccccc23)[C@@H](O)c2ccc(F)cc2)cc(OC(F)(F)C(F)F)c1 (racemic)
130 to 131 | CC(C)(N)CNC(=O)Nc1ccccc1
106 to 108 | COc1ccccc1C(=O)Nc1ccc(COc2ccc3c(c2)CCC(CN(C)C)C3)cc1 (centres undefined)
162 to 163 | S=C(NCCc1ccccc1)N1CCN(c2cnccn2)CC1
179 to 180 | CC(C)CC(=O)Nc1c(C(=O)c2cccc(C(F)(F)F)c2)[nH]c2cc(Cl)ccc12
158 to 159 | CC(OC(=O)C1N2C(=O)C(NC(=O)Cc3ccccc3)C2S(=O)C1(C)C)C1CC1 (centres undefined)
103 to 104 | CCCc1c(C(C)C)nc(C(C)C)c(C(C)O)c1-c1ccc(F)cc1 (centres undefined)
> 250 | O=Cc1ccn(C2=CC3=C(CC2)CCc2[nH]c(=O)c(=O)[nH]c23)c1
93 to 97 | FC(F)(F)C(/C=C/c1ccc(-n2cncn2)cc1)c1cc(Cl)cc(Cl)c1 (centres undefined)
264 to 266 | Nc1cc(Sc2ccc3c(C(=O)O)cccc3c2)ncn1
94 | Nc1ncccc1CNC(=O)C1Cc2ccccc2N1S(=O)(=O)c1ccc(-c2cccc(C(F)(F)F)c2)cc1 (centres undefined)
116 to 118 | COCCn1nc(-c2ccc(Cl)cc2)c2ccccc2c1=O
